Data published in the supplement of paper PMC6045584.
± gives the standard deviation of the averaged measurements.

Tests used:
17-AAG = compound: C=CCNC1=C2C[C@@H](C)C[C@H](OC)[C@H](O)[C@@H](C)/C=C(\C)[C@H](OC(N)=O)[C@@H](OC)/C=C\C=C(/C)C(=O)NC(=CC1=O)C2=O [17-AAG]; assay: surviving fraction relative to DMSO-only wells; higher = less growth inhibition; conditions: exposure time: 5 days
Procedure, shortened: (§1)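 Tumour cell lines were seeded in log phase at 250–500 cells per well into 384-well plates. Starting 24 hours later, inhibitors were present continuously for five days at 0.5, 1, 5, 10, 50, 100, 500 and 1000 nM. Surviving fraction, from CellTiter-Glo luminescence, is normalised to the median of DMSO-only wells. Three screens per line were required, with replicate Pearson r >0.7 and median Z' >0.3 for a line to be kept.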

VISMODEGIB = compound: CS(=O)(=O)c1ccc(C(=O)Nc2ccc(Cl)c(-c3ccccn3)c2)c(Cl)c1 [VISMODEGIB]; assay: as above; conditions: exposure time: 5 days
Procedure, shortened: as §1

Test System | surviving fraction (17-AAG; 0.5 nM) | surviving fraction (17-AAG; 1 nM) | surviving fraction (17-AAG; 5 nM) | surviving fraction (17-AAG; 10 nM) | surviving fraction (17-AAG; 50 nM) | surviving fraction (17-AAG; 100 nM) | surviving fraction (17-AAG; 500 nM) | surviving fraction (17-AAG; 1000 nM) | surviving fraction (VISMODEGIB; 0.5 nM) | surviving fraction (VISMODEGIB; 1 nM) | surviving fraction (VISMODEGIB; 5 nM) | surviving fraction (VISMODEGIB; 10 nM) | surviving fraction (VISMODEGIB; 50 nM) | surviving fraction (VISMODEGIB; 100 nM) | surviving fraction (VISMODEGIB; 500 nM) | surviving fraction (VISMODEGIB; 1000 nM)
SG31 HEADNECK | 0.87 ± 0.024 | 0.911 ± 0.052 | 0.874 ± 0.15 | 0.753 ± 0.14 | 0.642 ± 0.064 | 0.302 ± 0.034 | 0.047 ± 0.0092 | 0.0317 ± 0.0029 | 0.965 ± 0.17 | 1.01 ± 0.2 | 0.946 ± 0.088 | 1.11 ± 0.22 | 0.783 ± 0.031 | 0.94 ± 0.054 | 0.834 ± 0.049 | 0.826 ± 0.091
SG32 HEADNECK | 0.955 ± 0.12 | 0.834 ± 0.19 | 0.875 ± 0.16 | 0.881 ± 0.14 | 0.528 ± 0.097 | 0.259 ± 0.042 | 0.0457 ± 0.0023 | 0.034 ± 0.0044 | 1.01 ± 0.031 | 1.08 ± 0.11 | 1.07 ± 0.17 | 1.58 ± 0.69 | 0.857 ± 0.06 | 1.08 ± 0.26 | 0.844 ± 0.14 | 0.873 ± 0.075
SG43 HEADNECK | 1.1 ± 0.2 | 1.1 ± 0.22 | 1.05 ± 0.043 | 0.801 ± 0.25 | 0.302 ± 0.069 | 0.074 ± 0.034 | 0.03 ± 0.004 | 0.028 ± 0.0062 | 0.961 ± 0.18 | 1.15 ± 0.63 | 0.861 ± 0.075 | 0.972 ± 0.32 | 1.18 ± 0.35 | 0.9673 ± 0.0015 | 1.17 ± 0.3 | 1.18 ± 0.14
SIHA CERVIX | 1.01 ± 0.073 | 0.939 ± 0.033 | 0.969 ± 0.18 | 0.895 ± 0.032 | 0.581 ± 0.077 | 0.211 ± 0.012 | 0.171 ± 0.0082 | 0.18 ± 0.017 | 0.961 ± 0.024 | 1.08 ± 0.038 | 1.03 ± 0.045 | 1.06 ± 0.025 | 0.923 ± 0.044 | 0.993 ± 0.12 | 0.895 ± 0.097 | 0.991 ± 0.064
SJSA1 BONE | 0.84 ± 0.049 | 0.865 ± 0.064 | 0.872 ± 0.023 | 0.846 ± 0.029 | 0.217 ± 0.02 | 0.106 ± 0.0032 | 0.0517 ± 0.0055 | 0.0433 ± 0.0011 | 0.999 ± 0.043 | 1.01 ± 0.07 | 1.04 ± 0.024 | 1.01 ± 0.045 | 1.04 ± 0.073 | 1.02 ± 0.052 | 1.02 ± 0.093 | 0.985 ± 0.05
SKBR3 BREAST | 0.752 ± 0.21 | 0.76 ± 0.055 | 0.497 ± 0.033 | 0.365 ± 0.026 | 0.25 ± 0.018 | 0.205 ± 0.013 | 0.177 ± 0.019 | 0.173 ± 0.0038 | 1.15 ± 0.085 | 0.954 ± 0.027 | 0.907 ± 0.059 | 0.975 ± 0.09 | 1.01 ± 0.068 | 0.896 ± 0.029 | 0.764 ± 0.026 | 0.774 ± 0.075
SNU475 LIVER | 0.864 ± 0.017 | 0.884 ± 0.013 | 0.792 ± 0.036 | 0.418 ± 0.062 | 0.259 ± 0.02 | 0.234 ± 0.0059 | 0.248 ± 0.013 | 0.23 ± 0.029 | 0.959 ± 0.046 | 0.946 ± 0.057 | 0.967 ± 0.019 | 0.982 ± 0.0087 | 0.884 ± 0.032 | 0.89 ± 0.03 | 0.869 ± 0.024 | 0.902 ± 0.012
SUM44 BREAST | 0.897 ± 0.02 | 0.863 ± 0.051 | 0.759 ± 0.026 | 0.522 ± 0.026 | 0.539 ± 0.021 | 0.494 ± 0.014 | 0.456 ± 0.017 | 0.464 ± 0.012 | 0.945 ± 0.033 | 0.951 ± 0.048 | 0.994 ± 0.017 | 0.934 ± 0.02 | 0.929 ± 0.051 | 0.9713 ± 0.0095 | 0.924 ± 0.14 | 0.876 ± 0.055
SUM149 BREAST | 0.924 ± 0.031 | 0.964 ± 0.026 | 0.87 ± 0.053 | 0.35 ± 0.018 | 0.0457 ± 0.0049 | 0.034 ± 0.004 | 0.0233 ± 0.0023 | 0.0237 ± 0.00058 | 0.871 ± 0.11 | 0.856 ± 0.042 | 0.968 ± 0.053 | 0.877 ± 0.0066 | 0.904 ± 0.1 | 0.887 ± 0.014 | 0.945 ± 0.088 | 0.895 ± 0.077
SUM149.B1*.S BREAST | 0.9335 ± 0.0026 | 0.893 ± 0.032 | 0.905 ± 0.038 | 0.83 ± 0.017 | 0.201 ± 0.021 | 0.131 ± 0.018 | 0.083 ± 0.019 | 0.0832 ± 0.014 | 0.992 ± 0.064 | 0.971 ± 0.056 | 0.981 ± 0.033 | 0.987 ± 0.039 | 0.922 ± 0.051 | 0.988 ± 0.0033 | 0.9072 ± 0.0081 | 0.913 ± 0.054
SUM159 BREAST | 1.02 ± 0.087 | 0.998 ± 0.046 | 0.993 ± 0.062 | 0.946 ± 0.044 | 0.0997 ± 0.0055 | 0.0537 ± 0.0086 | 0.053 ± 0.0046 | 0.0527 ± 0.01 | 1.14 ± 0.23 | 1.12 ± 0.17 | 1.14 ± 0.22 | 1.15 ± 0.22 | 1.06 ± 0.12 | 1.08 ± 0.084 | 1.12 ± 0.2 | 1.11 ± 0.14
